Measurements taken from a melting point compilation (Tetko et al.; mined from patent text by program, amines drawn as free bases though some values may be those of a salt).

`CC(=O)N1CCN=C1CC(c1ccccc1)c1ccccc1` gave a melting point of 104 to 106 °C. For `CC(=O)Nc1ccc(Nc2nnc(Cc3ccncc3)c3ccccc23)cc1`, the melting point was over 270 °C. With `Cc1nc(N2CCCC(Cc3ccc(F)cc3)C2=O)sc1C(=O)NCc1ccccc1` (configuration not stated) the melting point was 154 to 155 °C. `CCCn1nc2c(=O)[nH]c3ccccc3c2c1N` showed a melting point of 266 to 268 °C. `COC(=O)CCCC=C(c1cc(C)c2oc(=O)n(C)c2c1)c1cc(C)c2oc(=O)n(C)c2c1` showed a melting point of 164 to 165 °C. With `CCNC(=O)c1ccc2c(c1)Nc1ccccc1S2` the melting point was 150 to 151 °C. `CCOC(=O)Nc1ccc(C(=O)CCC(=O)O)cc1` gave a melting point of 206 to 207 °C. `CC(=O)N(O)Cc1ccc(C(O)C#Cc2ccsc2)cc1` (configuration not stated) showed a melting point of 126 to 129 °C. In the case of `CCOCc1nc2cnc3cc(Br)ccc3c2n1CC1CCN(C(=O)OC(C)(C)C)CC1`, the melting point is reported as 169 to 170 °C. `CCCOc1nccc2c1C(c1ccccc1C(F)(F)F)C(C(=O)OCC)=C(C)N2` (configuration not stated) showed a melting point of 115 to 117 °C. In the case of `C1=C(c2c[nH]cn2)c2ccccc2C1`, the melting point is reported as 232 to 240 °C. With `O=C(NC(=O)c1c(Cl)cccc1Cl)Nc1noc2ccccc12` the melting point was 212 to 215 °C. Work on `CS(=O)(=O)c1ccc(C(CC2CCCC2)C(=O)Nc2ccccn2)cc1C(F)(F)F` (configuration not stated) yielded a melting point of 86 to 89 °C. `CNC(=O)[C@H]1CN(c2ccc3c(c2)oc(=O)n3C(C)C)C(=O)O1` showed a melting point of 216 to 218 °C. `O=C(O)c1ccc(NC(=O)C(F)(F)F)cc1` gave a melting point of 277 to 278 °C. `Nc1ccc(Oc2ccc3cc(Oc4ccc(N)c(O)c4)ccc3c2)cc1O` showed a melting point of 239 to 241 °C. Molecule `Cc1[nH]c(=S)n(Nc2cccc(Cl)c2)c1C` has a melting point of 234 °C. Work on `COc1ccc(C(C)N(O)C(N)=O)cc1` (configuration not stated) yielded a melting point of 132 to 134 °C. With `CCOC(=O)c1cccc2c1Nc1ccc(C(=O)c3ccccc3)cc1N2C` the melting point was 139 to 141 °C. `CC(C)CN1C(=O)COc2cc(F)c([N+](=O)[O-])cc21` showed a melting point of 108 to 110 °C. Molecule `C=CCc1cnc2c([N+](=O)[O-])cccc2c1Cl` has a melting point of 64 to 66 °C. In the case of `N#Cc1cnn2c(C(F)(F)F)cc(-c3cccc(C(F)(F)F)c3)nc12`, the melting point is reported as 192 °C. Molecule `COc1cccc2c1CC[C@@H](O)[C@@H]2N1CCCC1` (relative stereo) has a melting point of 113 to 115 °C. Molecule `CCOC(=O)CN1C(=O)N(c2ccc(C#N)c(C(F)(F)F)c2)C(=O)C1(C)C` has a melting point of 152 °C. `CCCCCCCNC(=O)N(C)c1cccc(-c2ccc(C=C(OC)C(=O)OC)cc2)c1` gave a melting point of 93 °C. Molecule `CCC(C)(CCCCCCC(C)(CC)C(=O)O)C(=O)O` (configuration not stated) has a melting point of 117 to 118 °C. `Cn1nc(-c2cc([N+](=O)[O-])c(O)cc2F)c(Cl)c1C(F)(F)F` showed a melting point of 89 to 90 °C. `CSCC12CCC(O)C=C1CCC1C2CCC2(C)C(O)CCC12` (configuration not stated) gave a melting point of 85 to 87 °C. For `COc1ccc(CN(C)CCc2ccc(NC(=O)c3cccc4c(=O)c5ccccc5[nH]c34)cc2)cc1OC`, the melting point was 172 °C. `CC(=O)Oc1ccc(-c2ccc3cc(C(=O)O)ccc3c2)cc1` gave a melting point of 256 to 258 °C. With `CCOC(=O)C(=O)Nc1ccc2nonc2c1NC(=O)C(=O)OCC` the melting point was 175 °C. Molecule `CCCc1cc(=O)oc2cc(OC(=O)C(C)(C)C)c3c(c12)OC(C)(C)C=C3` has a melting point of 65 to 68 °C. Molecule `COC(=O)c1ncn(C2CCCCO2)c1CC#N` (configuration not stated) has a melting point of 98 to 99 °C. Work on `FC(F)(F)c1cc(OCc2ccc(-c3ccccc3-c3nnn(C(c4ccccc4)(c4ccccc4)c4ccccc4)n3)cc2)c2c(n1)CCCC2` yielded a melting point of 141 to 143 °C. `Cn1ccc2c(C(=O)c3ccccc3OCCCCl)cccc21` gave a melting point of 60 °C. In the case of `O=CN=C1SCCN1Cc1ccc(Cl)nc1`, the melting point is reported as 99 to 100 °C. `CCOC(=O)c1cc(=O)c2ccc(OS(=O)(=O)c3ccc(C)cc3)c([N+](=O)[O-])c2o1` gave a melting point of 125 °C. `Cc1ccc(C(=O)Cn2c3c(sc2=O)CCCC3)cc1` gave a melting point of 108 to 110 °C. In the case of `CCCCS(=O)(=O)NC1Cc2ccc(C3=NNC(=O)C(c4ccccc4)C3)cc2C1` (configuration not stated), the melting point is reported as 216 to 217 °C. With `O=C1NCN(c2ccccc2)C12CCN(CCCNc1ccc(F)cc1)CC2` the melting point was 158 to 162 °C. `O=[N+]([O-])c1nccn1COCCO` gave a melting point of 115 °C. With `COc1ccc(CCc2ccc(NC(=O)C(=O)c3ccccc3O)cc2)cc1OC` the melting point was 124 to 125 °C. In the case of `CCCCOC(=O)Cc1cc(O)c(C)cc1O`, the melting point is reported as 113 °C. `CCOc1ccc2c(=O)c(-c3nnnn3C)cn(C)c2c1` showed a melting point of 214 to 217 °C. With `Cc1oc(-c2ccccc2)nc1Cc1cc2cc(C=CC=C3OC(=O)NC3=O)ccc2o1` the melting point was 237 to 239 °C. Work on `Cn1c(Cc2ccccc2)noc1=O` yielded a melting point of 105 to 107 °C. Work on `CCCCCCCCSC(=O)n1cc2cc(C)c(NC(=O)c3cc(OC)nn3-c3ncccc3Cl)c(C(=O)NC(C)C)c2n1` yielded a melting point of 98 to 102 °C. Work on `OC1c2ccccc2Sc2ccccc21` yielded a melting point of 102 to 105 °C. `Cc1cnc(CCC(C)C#N)c(N)c1` (configuration not stated) showed a melting point of 112 to 114 °C. `CCOC(=O)NNc1ccc(-c2ccccc2)nn1` gave a melting point of 158 to 160 °C. `CCSc1cc(C)nc(SCC)c1NC(=O)CCCCCCCCSc1nc2ccccc2s1` gave a melting point of 88 to 92 °C. Work on `Cc1cc2cc(CN3CCCCCC3)cnc2cc1NC(=O)c1ccc(-c2ccccc2)cc1F` yielded a melting point of 151 °C. `CC1(C)OC(=S)Nc2ccc(-c3cc(F)cc(F)c3)cc21` showed a melting point of 224 to 225 °C. `O=C(NCCSCc1ccccc1Cl)c1c(Cl)cccc1Cl` showed a melting point of 110 to 112 °C. Molecule `Cc1oc(-c2ccccc2)nc1COc1cc(COc2ncccc2C#N)on1` has a melting point of 139 to 140 °C. Molecule `Nc1c(-c2cc(Cl)ccc2O)c2ccc(C(F)(F)F)cc2[nH]c1=O` has a melting point of 225 to 227 °C. For `C[C@@H](S[C@H]1CO[C@H](c2ccc(C(=O)Nc3nccs3)cc2)OC1)[C@](O)(Cn1cncn1)c1ccc(F)cc1F`, the melting point was 108 °C. `OC(C=Cc1ccco1)c1cnc2sc3c(n12)CCCCC3` (configuration not stated) showed a melting point of 177 to 180 °C. `N=C1NCCCN1Cc1ccc(Cl)nc1` showed a melting point of 220 °C. For `CC(C)(C#N)c1cc(CO)cc(Cn2cncn2)c1`, the melting point was 111 to 113 °C. Work on `CCOC(=O)CC[C@H](NC(=O)c1ccc([N+](=O)[O-])cc1Cl)C(=O)OCC` yielded a melting point of 95 to 96 °C. Molecule `CON=C(C(=S)OC)c1ccccc1COc1ccccc1Cl` has a melting point of 58 to 60 °C. `O=C(NCc1cccs1)C1(c2ccc(Cl)cc2)CCCC1` gave a melting point of 119 to 120 °C. Work on `COc1cc(Nc2c(C#N)cnc3cc(-c4ccc(CNCCS(=O)(=O)c5ccccc5)cc4)ccc23)c(Cl)cc1Cl` yielded a melting point of 198 to 201 °C. For `OC1(c2cccnc2N2CCCC2)CCN(CC23CC(c4ccccc42)c2ccccc23)CC1`, the melting point was 249 to 253 °C. Molecule `COc1ccccc1C1(C(C)C)C(=O)N(C)c2ccccc21` (configuration not stated) has a melting point of 113 to 115 °C. In the case of `CN1CCC2(CC1)c1ccccc1Oc1c(O)cccc12`, the melting point is reported as 171 to 173 °C. `Cc1cc(S(=O)(=O)O)c(NC(=O)Nc2cc3ccccc3[nH]2)cc1Cl` gave a melting point of 284 to 286 °C. Work on `CNC(=S)NS(=O)(=O)c1cc(CCNC(=O)c2cc(Cl)ccc2OC)ccc1-c1ccc(Cl)cc1` yielded a melting point of 189 to 192 °C. `CS(=O)c1n[nH]c2ccccc2c1=O` (configuration not stated) gave a melting point of 266 to 269 °C. `N#Cc1cccc(CCC(=O)c2c(O)c3cccnc3n(-c3ccccc3)c2=O)c1` gave a melting point of 219 to 220 °C. In the case of `NC(=O)c1ccc(Cn2ccc(NC(=S)NCC(F)(F)F)n2)cc1`, the melting point is reported as 205 to 206 °C. In the case of `CCOC(=O)Cn1c(-c2ccc(Cl)cc2)nc2cccnc21`, the melting point is reported as 123 to 124 °C. `Cc1ccc2[nH]cc(C3C(=O)N(C)C(=O)C3c3cn(C)c4ccc(C)cc34)c2c1` (configuration not stated) showed a melting point of 103 to 105 °C. In the case of `CN(Cc1ccccc1)C(=O)c1c(-c2ccncc2)c(-c2ccc(F)cc2)nn1CCO`, the melting point is reported as 136 to 138 °C. `CCOC(=O)CNC(=O)Nc1ccc(C(=N)NC(=O)OC(C)(C)C)cc1` showed a melting point of 107 to 110 °C. With `CC1(C)C2CCC1(CS(=O)(=O)NCCC1CCc3ccccc31)C(=O)C2` (configuration not stated) the melting point was 52 to 70 °C. In the case of `CC(=O)Nc1ccc(C(=S)NN)cc1`, the melting point is reported as 220 to 221 °C. `CCOC(=O)C(NC(=O)NN1CC(=O)NC1=O)c1ccccc1` (configuration not stated) gave a melting point of 148 to 151 °C. `O=C(CCCO)NCc1ccccc1` showed a melting point of 70 to 72 °C. For `COc1ccc(-c2ccccc2)c2sc(-c3ncc[nH]3)nc12`, the melting point was 205 to 206 °C. Molecule `COC(=NO)c1cccc2[nH]cc(C=O)c12` has a melting point of 178 to 179 °C. In the case of `CCC(=O)C(CCCOc1ccc2c(c1)OCO2)C(=O)CC`, the melting point is reported as 68 °C. For `Cc1ccc(-c2ccccc2C(=O)Nc2ccc(C(=O)N3CCC(=O)N(CC(=O)N4CCN(C)CC4)c4ccccc43)cc2)cc1`, the melting point was 161 to 163 °C. In the case of `CN(C)S(=O)(=O)c1nnc(N)s1`, the melting point is reported as 188 to 190 °C. `CCOC(=O)C1=C(C)NC(C)=C(C(=O)OCCSc2ccccc2)C1C` (configuration not stated) showed a melting point of 143 to 145 °C. Work on `COC(=O)NC1=NC(c2ccc3ccccc3c2)CN1` (configuration not stated) yielded a melting point of 227 to 228 °C. `N#CC(CCCOc1ccccc1)(Cn1cncn1)c1ccccc1` (configuration not stated) showed a melting point of 85 to 86 °C. In the case of `CC(CNc1c(C(=O)O)cccc1[N+](=O)[O-])NCc1ccccc1` (configuration not stated), the melting point is reported as 227 °C. Molecule `Clc1ccccc1Cc1nc2cccc(CCc3nccs3)c2o1` has a melting point of 64 to 66 °C. Work on `CCCc1nc2c(N)nc3ccccc3c2n1CCCCNS(=O)(=O)c1ccccc1` yielded a melting point of 159 to 161 °C. Work on `CCOC(=O)c1nc2scc(COCc3ccc(F)cc3)c2c(=O)[nH]1` yielded a melting point of 195 to 196 °C. Work on `CCCCOC(=O)C(C)(NC(=O)c1cc([N+](=O)[O-])cc([N+](=O)[O-])c1)C(C)C` (configuration not stated) yielded a melting point of 110 to 113 °C. `CN1C(=O)N(c2nnc(C(C)(C)C)s2)C(=O)C1(C)OC(N)=O` (configuration not stated) gave a melting point of 165 °C. For `CC(C)(C)OC(=O)Cc1ccc(O)cc1`, the melting point was 95 to 96 °C. `CCOC(=O)C1=C(COCc2nnnn2CC(N)=O)NC(C)=C(C(=O)OC)C1c1ccccc1Cl` (configuration not stated) gave a melting point of 97 to 100 °C. For `CN1CCC(Oc2noc3ccc(Cl)cc23)CC1`, the melting point was 55 to 56 °C. In the case of `CCCCC1OC(=O)c2cc(NC(N)=O)ccc21` (configuration not stated), the melting point is reported as 196 to 199 °C. With `Cc1ccc(-c2nc(Cl)nc(Cl)n2)c(C)c1` the melting point was 136 to 137 °C. In the case of `CC(=O)N=c1[nH]c2ccccc2n1C1CCNCC1`, the melting point is reported as 164 °C. `COc1cc2c(cc1C(F)(F)F)N(C(=O)Nc1cncc(-c3c(F)cccc3F)c1)CC2` showed a melting point of 217 to 219 °C. `CNc1nc(=O)c2cccnc2n1Cc1ccc(F)cc1` showed a melting point of 242 to 246 °C.
